Assay results reported in the NIST ThermoML archive (doi:10.1016/j.jct.2016.03.030).

Experiment: molar heat capacity at constant pressure; xn = mol fraction of the nth substance listed
Details: 100 kPa, Liquid, Small sample (50 mg) DSC

CCCC[N+]1(C)CCOCC1.[Br-] [4-butyl-4-methylmorpholinium bromide] + O
molar heat capacity at constant pressure [J/K/mol]
Details | 298.15 K | 303.15 K | 308.15 K | 313.15 K | 318.15 K | 323.15 K | 328.15 K | 333.15 K | 338.15 K | 343.15 K
x1 = 0.0363 | 87.85 | 87.9 | 88.24 | 88.5 | 88.76 | 89.02 | 89.23 | 89.41 | 89.57 | 89.8
x1 = 0.0601 | 94.21 | 94.49 | 95.08 | 95.61 | 96.11 | 96.14 | 96.74 | 97.08 | 97.24 | 97.27
x1 = 0.1242 | 111.81 | 112.44 | 113.49 | 114.39 | 115.3 | 116.21 | 117.02 | 117.79 | 118.61 | 119.34
x1 = 0.2383 | 149.98 | 150.75 | 152.16 | 153.36 | 154.56 | 155.82 | 156.95 | 158.08 | 159.21 | 160.26
x1 = 0.2569 | 154.14 | 155.11 | 156.45 | 157.64 | 158.76 | 160.03 | 161.22 | 162.27 | 163.39 | 164.51
x1 = 0.3007 | 165.4 | 166.24 | 167.67 | 168.93 | 170.11 | 171.54 | 172.72 | 173.82 | 175 | 176.09

CCCCC[N+]1(C)CCOCC1.[Br-] [4-methyl-4-pentylmorpholinium bromide] + O
molar heat capacity at constant pressure [J/K/mol]
Details | 298.15 K | 303.15 K | 308.15 K | 313.15 K | 318.15 K | 323.15 K | 328.15 K | 333.15 K | 338.15 K | 343.15 K
x1 = 0.0316 | 94.11 | 94.16 | 94.44 | 94.72 | 94.98 | 95.31 | 95.54 | 95.76 | 95.94 | 96.1
x1 = 0.0695 | 105.99 | 106.33 | 106.88 | 107.4 | 107.91 | 108.43 | 108.87 | 109.28 | 109.73 | 110.14
x1 = 0.1522 | 133.02 | 133.71 | 134.95 | 135.91 | 136.93 | 138.01 | 138.86 | 139.78 | 140.69 | 141.55
x1 = 0.2054 | 153.72 | 154.58 | 156.03 | 157.22 | 158.41 | 159.6 | 160.73 | 161.92 | 163.04 | 164.03
x1 = 0.219 | 149.69 | 150.59 | 151.97 | 153.29 | 154.54 | 155.79 | 156.96 | 158 | 159.04 | 160.08
x1 = 0.2438 | 159.53 | 160.5 | 161.93 | 163.21 | 164.56 | 165.91 | 167.26 | 168.39 | 169.59 | 170.72
x1 = 0.2754 | 165.68 | 166.67 | 168.15 | 169.64 | 170.96 | 172.28 | 173.51 | 174.92 | 176.15 | 177.39

CCC[N+]1(C)CCOCC1.[Br-] [4-methyl-4-propylmorpholinium bromide] + O
molar heat capacity at constant pressure [J/K/mol]
Details | 298.15 K | 303.15 K | 308.15 K | 313.15 K | 318.15 K | 323.15 K | 328.15 K | 333.15 K | 338.15 K | 343.15 K
x1 = 0.0336 | 82.58 | 82.9 | 83.23 | 83.53 | 83.78 | 84.05 | 84.28 | 84.5 | 84.72 | 84.95
x1 = 0.0618 | 89.62 | 89.92 | 90.54 | 91.03 | 91.49 | 92.05 | 92.45 | 92.91 | 93.25 | 93.65
x1 = 0.1298 | 107.63 | 108.21 | 109.1 | 110 | 110.81 | 111.61 | 112.42 | 113.09 | 113.81 | 114.43
x1 = 0.2036 | 125.06 | 125.72 | 126.8 | 127.7 | 128.6 | 129.5 | 130.16 | 130.58 | 130.94 | 131.12
x1 = 0.2742 | 132.6 | 133.19 | 134.31 | 135.28 | 136.1 | 137.14 | 137.89 | 138.56 | 139.23 | 140.05
x1 = 0.3025 | 146.99 | 147.64 | 148.84 | 149.81 | 150.85 | 151.81 | 152.7 | 153.5 | 154.39 | 155.03
